Tests used:
Sint-Laureins soil = assay: Greenhouse gas emissions from soil fertilized with ammonium, Sint-Laureins soil
Method: (§1) Two agricultural soils coming from fields in Moorslede and Sint-Laureins were used. Screw top vials were filled with 10 g soil. Vials were sealed with Parafilm and preincubated at 21° C. in the dark for 5 days. After pre-incubation, vials were ventilated using a fan. The 100 μL of a 1 mM compound solution (10% DMSO) was added, immediately followed by the addition of 100 μL 200 mM NH4Cl. Vials were closed gastight and 5 mL synthetic air was added to the headspace using a plastic syringe, followed by the transfer of 5 mL headspace to an evacuated 3 mL exetainer. Vials were incubated at 21° C. in the dark and background NO concentration was noted. At each sampling timepoint, 5 mL synthetic air was added again to the headspace using a plastic syringe, again followed by the transfer of 5 mL headspace to an evacuated 3 mL exetainer. Vials were ventilated and closed again, and new gas samples were transferred to texetainers like before. N2O, CO2, CH4 in the exetainers were measured via gas chromatography. NO concentration was measured directly.
(§2) To further confirm the inhibitory effect of the new class of nitrification inhibitors on nitrogen losses, gas emissions from soil fertilized with ammonium and treated with 1,3-thiazolidine-2-thione were captured. NO, N2O, CO2 and CH4 was measured.

Moorslede soil [1] = assay: In soil nitrification inhibition assay, Moorslede soil; conditions: soil, 120 h, 5 days
Method: Top layer (0 to 10 cm) soil samples were collected from different fields in Belgium (Merelbeke and Moorslede). Vegetation on the field trial was removed and samples were taken from different plots. All soil samples were mixed and sieved (mesh size 2.8 mm) to filter large debris and homogenize soil. The soil was stored at 5° C. in plastic containers covered with Saran foil to prevent changes in microbial community composition and to maintain the original soil water content.
Soil water content was determined by drying 20 g soil for 48 h in a 60° C. oven and measuring weight before and after drying. Based on the soil water content (±20%), compound solutions were prepared so that addition of 200 μl compound and 200 μl NH4Cl solution would result in a final compound concentration of 50 μM and a final NH4^+ concentration of 10 mM. Per treatment, 5 small pots were filled with 20 g soil. Next, the soil was treated first with the respective compound solution and then with the NH4Cl solution. Per tray, positive (50 μM DMP) and negative controls (DMSO) were included. Pots were incubated at 21° C. (6 a.m. to 10 p.m. light) for 7 days. Demineralized water was added to the soil every 2 to 3 days to a soil weight of 20 g. In the end, each sample of 20 g soil was dissolved in 100 ml 1M KCl and shaken for 1 hour, followed by filtration through Whatmann® paper. The filtrate was used to measure pH, NH4^+ and NO3− concentrations.
A set of examples was tested in the same conditions (Moorslede soil, 3 days of incubation) at a concentration of 50 μM.
Another set of examples was tested in different concentrations in Moorslede soil as well, and were sampled after 5 days.
The effect of 3H-1,3-thiazole-2-thione was tested in soil in accordance with the test described above in section 3.3.

Moorslede soil [2] = assay: Greenhouse gas emissions from soil fertilized with ammonium, Moorslede soil
Method: as §1, §2

Nitrosomonas europaea = assay: Nitrification inhibition assay with Nitrosomonas europaea (nitrite level after 24 h); type: cell-based; conditions: Nitrosomonas europaea
Method: (§3) The compounds of formula (I) and (II) and (III)/(IV) were tested for their nitrification inhibition effect in two screens, using assays with the nitrifying bacteria N. europaea and N. multiformis. In practice, ammonium and candidate nitrification inhibitors (at 100 μM) were added to a dense bacterial culture in multiwell culture plates and after 24 h of incubation, the nitrite level was measured. To normalize for differences between batches of cultures and multiwell culture plates, for each well a relative nitrification was calculated that was normalized towards both the negative and positive controls (see “Material and Methods” below for full details).
(§4) Nitrite (NO2−) was measured using the Griess reagent (Product number: G4410, Griess reagent (modified), Sigma-Aldrich). Equal volumes of the sample or a diluted sample and the Griess reagent were mixed a transparent flat bottom multi-well plate and incubated in the dark at room temperature for 10 minutes. Absorbance values at 540 nm were measured spectrophotometrically (EnVision, Perkin Elmer®) and used to calculate the [NO2−] by use of a standard curve.
To prepare a high-throughput nitrification inhibition assay using N. europaea, late-log phase cultures were subcultivated two days before the assay. Just before the assay, the cultures were 5 times overconcentrated with fresh growth medium after centrifugation (4000 rpm, 15 min, 5° C.) in 50 mL centrifuge tubes (Cat. No. 430829, CentriStar™ Conical Centrifuge Tubes, Corning®). Per batch, all the cultures were pooled in one sterile Schott bottle and subsequently dispensed into 384-well plates (Cat. No. 781086, CELL-STAR® plate, Greiner Bio-One; 50 μl/well) by use of a dispenser (Multidrop™ Combi Reagent Dispenser, Thermo Scientific™) that was first flushed with growth medium. Specifically for the high-throughput screen for new nitrification inhibitors, 0.5 μl of 99.99% DMSO (negative control—final concentration 1%) was added to the outer two columns on the left side of the plate and 0.5 μl of 10 mM DMP (3,4-dimethylpyrazole, positive control—final concentration 100 μM) was added to the outer two columns on the right side manually. Finally, 0.5 μl of candidate nitrification inhibitors (5 mM stock solutions in 99.99% DMSO—final concentration 50 μM) were added to the central wells using a pin tool on a Tecan robot (Freedom EVO®, Tecan). In between additions, the pins were washed in sequence with 99.5% DMSO, MilliQ water and 100% ethanol and air-dried. All plates were separately wrapped in Parafilm. Stacks of 4 plates were put on top of a 96-well plate filled with 100 μl MilliQ per well, covered with aluminum foil and shaken at 150 rpm at 28° C. 24 h later, NO2− production was assessed. For this, the samples were first 200 times diluted by pipetting 1.5 μl of samples into 300 μl of fresh growth medium in intermediate plates (Cat. No. 353077, Falcon® 96-well Clear Round Bottom Microplate, Corning®), to then mix 15 μl of the diluted samples with 15 μl Griess reagent in the wells of a transparent, flat bottom 384-well plate (Cat. No. X^7001, Low Profile Microplate, Molecular Devices) that was measured spectrophotometrically at 540 nm (EnVision, Perkin Elmer®).
(§5) To assess the efficacy of the compounds (in terms of nitrification inhibition) and to enable comparison between plates and batches of cultures, we calculated the relative nitrification. More in detail, all nitrite results were normalized towards both a negative control, containing no compound, and a positive control, containing the benchmark (100 μM DMP), using Equation 1. This normalization was done per multi-well plate and each plate contained 32 positive and 32 negative controls.
IC50 values, that is the concentration that inhibits 50% of the nitrification, were calculated after fitting a logistic curve to 8-point dose response data, using doses between 2 and 100 μM with 1.75 fold steps. […]

Nitrosospira multiformis = assay: Nitrification inhibition assay with Nitrosospira multiformis (nitrite level after 24 h); type: cell-based; conditions: Nitrosospira multiformis
Method: as §3, §4
Cultures were first 5 times overconcentrated in fresh 181-medium by centrifugation (4000 rpm, 15 min, 5° C.) in 50 mL centrifuge tubes (Cat. No. 430829, CentriStar™ Conical Centrifuge Tubes, Corning®). Per batch, all the cultures were pooled in one sterile Schott bottle and subsequently dispensed in 384-well plates (Cat. No. 781086, CELLSTAR® plate, Greiner BioOne; 50 μl/well) by use of a dispenser (Multidrop™ Combi Reagent Dispenser, Thermo Scientific™) that was first flushed with 181-medium. 0.5 μl of 99.99% DMSO (negative control—final concentration […] was added to the outer two columns on the left side of the plate and 0.5 μl of 10 mM DMP (3,4-dimethylpyrazole, positive control—final concentration 100 μM) was added to the outer two columns on the right side manually. Finally, 0.5 μl of candidate nitrification inhibitors (5 mM stock solutions in 99.99% DMSO—final concentration 50 μM) were added to the central wells using a pin tool on a Tecan robot (Freedom EVO®, Tecan). In between additions, the pins were washed in sequence with 99.5% DMSO, MilliQ water and 100% ethanol and air-dried. All plates were separately wrapped in Parafilm. Stacks of 4 plates were put on top of a 96-well plate filled with 100 μl MilliQ per well, covered with aluminum foil and shaken (±150 rpm) at 30° C. 24 h later, NO2− production was assessed. For this, the samples were first 100 times diluted by pipetting 3 μl of samples into 300 μl fresh growth medium in intermediate plates (Cat. No. 353077, Falcon® 96-well Clear Round Bottom Microplate, Corning®) to then mix 15 μl of the diluted samples with 15 μl Griess reagent in the wells of a transparent, flat bottom 384-well plate (Cat. No. X^7001, Low Profile Microplate, Molecular Devices) that was measured spectrophotometrically at 540 nm (EnVision, Perkin Elmer®).
as §5
IC50 values, that is the concentration that inhibits 50% of the nitrification, were calculated after fitting a logistic curve to 8-point dose response data, using doses between 2 and 100 μM with 1.75 fold steps. If a concentration of 2 μM already inhibited nitrification, the IC50 value could not be calculated. In that case, IC50 values represent the dose that gives inhibition closest to 50%.
The compounds of formula (I) and (II) were tested for their nitrification inhibition effect in two screens, using assays with the nitrifying bacteria N. europaea and N. multiformis. […]

[3] = 8-point dose response, 2 to 100 μM, read-out: IC50

Structure (SMILES): S=C1NCCS1 [Example 3, 1,3-thiazolidine-2-thione]
- Cumulative emission at indicated timepoint [ppm] (Sint-Laureins soil; CH4, 4 h): 0.00 ppm
- Cumulative emission at indicated timepoint [ppm] (Sint-Laureins soil; CH4, 24 h): 0.10 ppm
- Cumulative emission at indicated timepoint [ppm] (Sint-Laureins soil; CH4, 48 h): 0.16 ppm
- Cumulative emission at indicated timepoint [ppm] (Sint-Laureins soil; CH4, 72 h): 0.25 ppm
- Cumulative emission at indicated timepoint [ppm] (Sint-Laureins soil; CH4, 99 h): 0.25 ppm
- Cumulative emission at indicated timepoint [ppm] (Sint-Laureins soil; CO2, 4 h): 372 ppm
- Cumulative emission at indicated timepoint [ppm] (Sint-Laureins soil; CO2, 24 h): 1179 ppm
- Cumulative emission at indicated timepoint [ppm] (Sint-Laureins soil; CO2, 48 h): 2094 ppm
- Cumulative emission at indicated timepoint [ppm] (Sint-Laureins soil; CO2, 72 h): 3101 ppm
- Cumulative emission at indicated timepoint [ppm] (Sint-Laureins soil; CO2, 99 h): 4168 ppm
- Cumulative emission at indicated timepoint [ppm] (Sint-Laureins soil; N2O, 4 h): 0 ppm
- Cumulative emission at indicated timepoint [ppm] (Sint-Laureins soil; N2O, 24 h): 0 ppm
- Cumulative emission at indicated timepoint [ppm] (Sint-Laureins soil; N2O, 48 h): 1 ppm
- Cumulative emission at indicated timepoint [ppm] (Sint-Laureins soil; N2O, 72 h): 1 ppm
- Cumulative emission at indicated timepoint [ppm] (Sint-Laureins soil; N2O, 99 h): 2 ppm
- Cumulative emission at indicated timepoint [ppm] (Sint-Laureins soil; NO, 4 h): 17 ppm
- Cumulative emission at indicated timepoint [ppm] (Sint-Laureins soil; NO, 24 h): 52 ppm
- Cumulative emission at indicated timepoint [ppm] (Sint-Laureins soil; NO, 48 h): 86 ppm
- Cumulative emission at indicated timepoint [ppm] (Sint-Laureins soil; NO, 72 h): 140 ppm
- Cumulative emission at indicated timepoint [ppm] (Sint-Laureins soil; NO, 99 h): 161 ppm
- effect on CH4 emission, in words (Sint-Laureins soil; cumulative, incubation of 99 h): No significant effects
- effect on CO2 emission, in words (Sint-Laureins soil; cumulative, incubation of 99 h): strongly reduced
- effect on N2O emission, in words (Sint-Laureins soil; cumulative, incubation of 99 h): strongly reduced
- effect on NO emission, in words (Sint-Laureins soil; cumulative, incubation of 99 h): strongly reduced
- inhibition at 20 µM (Moorslede soil [1]; 20 μM, read-out: Average % nitrification inhibition in soil (5 days of incubation, Moorslede soil) at 20 μM): 7%
- Cumulative emission at indicated timepoint [ppm] (Moorslede soil [2]; CH4, 4 h): 0.20 ppm
- Cumulative emission at indicated timepoint [ppm] (Moorslede soil [2]; CH4, 24 h): 0.38 ppm
- Cumulative emission at indicated timepoint [ppm] (Moorslede soil [2]; CH4, 48 h): 0.38 ppm
- Cumulative emission at indicated timepoint [ppm] (Moorslede soil [2]; CH4, 72 h): 0.51 ppm
- Cumulative emission at indicated timepoint [ppm] (Moorslede soil [2]; CH4, 99 h): 0.51 ppm
- Cumulative emission at indicated timepoint [ppm] (Moorslede soil [2]; CO2, 4 h): 619 ppm
- Cumulative emission at indicated timepoint [ppm] (Moorslede soil [2]; CO2, 24 h): 2385 ppm
- Cumulative emission at indicated timepoint [ppm] (Moorslede soil [2]; CO2, 48 h): 4261 ppm
- Cumulative emission at indicated timepoint [ppm] (Moorslede soil [2]; CO2, 72 h): 6195 ppm
- Cumulative emission at indicated timepoint [ppm] (Moorslede soil [2]; CO2, 99 h): 8131 ppm
- Cumulative emission at indicated timepoint [ppm] (Moorslede soil [2]; N2O, 4 h): 0 ppm
- Cumulative emission at indicated timepoint [ppm] (Moorslede soil [2]; N2O, 24 h): 0 ppm
- Cumulative emission at indicated timepoint [ppm] (Moorslede soil [2]; N2O, 48 h): 0 ppm
- Cumulative emission at indicated timepoint [ppm] (Moorslede soil [2]; N2O, 72 h): 0 ppm
- Cumulative emission at indicated timepoint [ppm] (Moorslede soil [2]; N2O, 99 h): 0 ppm
- Cumulative emission at indicated timepoint [ppm] (Moorslede soil [2]; NO, 4 h): 25 ppm
- Cumulative emission at indicated timepoint [ppm] (Moorslede soil [2]; NO, 24 h): 28 ppm
- Cumulative emission at indicated timepoint [ppm] (Moorslede soil [2]; NO, 48 h): 43 ppm
- Cumulative emission at indicated timepoint [ppm] (Moorslede soil [2]; NO, 72 h): 65 ppm
- Cumulative emission at indicated timepoint [ppm] (Moorslede soil [2]; NO, 99 h): 65 ppm
- effect on CH4 emission, in words (Moorslede soil [2]; cumulative, incubation of 99 h): No significant effects
- effect on CO2 emission, in words (Moorslede soil [2]; cumulative, incubation of 99 h): strongly reduced
- effect on N2O emission, in words (Moorslede soil [2]; cumulative, incubation of 99 h): strongly reduced
- effect on NO emission, in words (Moorslede soil [2]; cumulative, incubation of 99 h): strongly reduced

Structure (SMILES): CSc1ncco1 [Example 39]
- inhibition at 50 µM (Moorslede soil [1]; 50 μM, read-out: % Nitrification inhibition in soil (5 days of incubation, Moorslede soil) at indicated concentration): 62%
- IC50 (Nitrosomonas europaea; [3]): 26 µM
- activity at 100 µM (Nitrosomonas europaea; tested concentration 100 μM, 24 h, normalized to DMSO (100%) and 100 μM DMP (0%), read-out: Nitrification (%) at tested concentration (0 = maximum activity)): 22%
- IC50 (Nitrosospira multiformis; [3]): > 100 µM
- activity at 100 µM (Nitrosospira multiformis; tested concentration 100 μM, 24 h, normalized to DMSO (100%) and 100 μM DMP (0%), read-out: Nitrification at tested concentration (0 = maximum activity)): 52%

— patent US20230416168A1 (EUROCHEM ANTWERPEN, priority 2020, published 2023)
